From patent US10168342B2, “Lipid probes and uses thereof” (THE SCRIPPS RESEARCH INSTITUTE, priority 2015, dated 2019)
Where two headings read alike, the source gives them in different places.

How the values were obtained:
[1] = biological target: AEA-DA lipid probe targets in Neuro2a cells (Mus musculus, UniProt Q8BWM0)
[2] = biological target: T1, AEA-DA lipid probe targets in Neuro2a cells (Mus musculus, UniProt P62492)
T1 sequence (P62492 1-216): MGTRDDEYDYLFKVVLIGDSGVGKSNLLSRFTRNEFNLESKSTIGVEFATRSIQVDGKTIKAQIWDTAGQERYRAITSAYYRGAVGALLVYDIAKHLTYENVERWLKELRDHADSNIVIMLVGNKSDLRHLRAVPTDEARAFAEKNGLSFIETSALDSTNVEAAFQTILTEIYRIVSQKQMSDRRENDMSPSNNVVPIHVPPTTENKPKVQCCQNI

[3] = biological target: AEA-DA lipid probe targets in Neuro2a cells (Mus musculus, UniProt Q60864)
[4] = biological target: AEA-DA lipid probe targets in Neuro2a cells (Mus musculus, UniProt Q60715)
AEA-DA lipid probe targets in Neuro2a cells (Mus musculus, UniProt Q60715), sequence (Q60715 18-534): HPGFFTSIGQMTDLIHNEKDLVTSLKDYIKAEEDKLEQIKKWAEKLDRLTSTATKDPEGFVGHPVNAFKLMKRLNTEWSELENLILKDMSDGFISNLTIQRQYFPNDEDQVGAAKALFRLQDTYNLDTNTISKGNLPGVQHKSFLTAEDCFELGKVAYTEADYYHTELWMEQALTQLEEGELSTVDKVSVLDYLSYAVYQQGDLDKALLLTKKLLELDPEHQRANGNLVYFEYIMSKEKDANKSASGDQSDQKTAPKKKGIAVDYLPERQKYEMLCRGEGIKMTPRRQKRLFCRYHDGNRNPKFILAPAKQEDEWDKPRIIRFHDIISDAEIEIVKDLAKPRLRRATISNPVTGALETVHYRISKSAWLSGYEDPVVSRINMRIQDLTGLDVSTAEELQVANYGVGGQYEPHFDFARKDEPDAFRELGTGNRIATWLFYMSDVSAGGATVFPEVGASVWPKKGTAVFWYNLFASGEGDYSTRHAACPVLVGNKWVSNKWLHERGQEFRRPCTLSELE

[5] = biological target: T2, AEA-DA lipid probe targets in Neuro2a cells (Mus musculus, UniProt Q99J56)
T2 sequence (Q99J56 1-251): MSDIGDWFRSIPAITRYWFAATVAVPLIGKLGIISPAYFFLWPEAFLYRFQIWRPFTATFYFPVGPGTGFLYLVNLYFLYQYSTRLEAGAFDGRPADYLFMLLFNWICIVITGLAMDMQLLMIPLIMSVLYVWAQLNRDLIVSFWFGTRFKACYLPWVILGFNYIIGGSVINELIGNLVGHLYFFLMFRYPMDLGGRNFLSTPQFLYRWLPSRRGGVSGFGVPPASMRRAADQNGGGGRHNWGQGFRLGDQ

[6] = biological target: T3, AEA-DA lipid probe targets in Neuro2a cells (Mus musculus, UniProt Q9CR67)
T3 sequence (Q9CR67 1-247): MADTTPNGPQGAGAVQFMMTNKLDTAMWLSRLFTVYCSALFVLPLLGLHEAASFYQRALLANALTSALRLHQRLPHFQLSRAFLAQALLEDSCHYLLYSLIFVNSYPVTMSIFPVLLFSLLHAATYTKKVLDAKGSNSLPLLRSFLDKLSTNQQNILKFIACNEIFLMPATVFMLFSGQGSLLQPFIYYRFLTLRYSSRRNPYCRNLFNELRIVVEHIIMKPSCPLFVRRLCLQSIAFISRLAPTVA

[7] = biological target: T4, AEA-DA lipid probe targets in Neuro2a cells (Mus musculus, UniProt Q99JY4); conditions: for SILAC ratio, TRABD (Q99JY4): Neuro2a cells, AEA-DA probe
T4 sequence (Q99JY4 1-376): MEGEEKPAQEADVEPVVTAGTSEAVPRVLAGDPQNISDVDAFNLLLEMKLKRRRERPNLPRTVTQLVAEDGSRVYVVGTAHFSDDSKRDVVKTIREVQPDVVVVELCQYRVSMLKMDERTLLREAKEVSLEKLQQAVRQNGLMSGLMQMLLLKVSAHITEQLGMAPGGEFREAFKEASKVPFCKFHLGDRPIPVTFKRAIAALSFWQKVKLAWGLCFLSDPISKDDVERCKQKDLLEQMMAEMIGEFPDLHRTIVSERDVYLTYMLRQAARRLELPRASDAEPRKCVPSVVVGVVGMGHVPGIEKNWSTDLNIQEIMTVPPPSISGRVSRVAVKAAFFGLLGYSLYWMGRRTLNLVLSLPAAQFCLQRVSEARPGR

[8] = biological target: T5, AEA-DA lipid probe targets in Neuro2a cells (Mus musculus, UniProt O89023)
T5 sequence (O89023 195-562): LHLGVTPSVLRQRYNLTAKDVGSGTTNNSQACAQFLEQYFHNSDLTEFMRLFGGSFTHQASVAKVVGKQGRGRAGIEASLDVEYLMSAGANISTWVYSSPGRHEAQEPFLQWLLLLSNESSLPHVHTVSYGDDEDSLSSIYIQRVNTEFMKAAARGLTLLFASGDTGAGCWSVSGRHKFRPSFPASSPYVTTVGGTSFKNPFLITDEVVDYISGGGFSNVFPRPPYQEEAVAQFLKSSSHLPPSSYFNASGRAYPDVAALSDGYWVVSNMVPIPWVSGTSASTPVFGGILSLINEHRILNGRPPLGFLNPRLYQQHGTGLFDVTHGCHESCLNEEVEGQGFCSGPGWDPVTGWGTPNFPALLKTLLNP

[9] = biological target: T6, AEA-DA lipid probe targets in Neuro2a cells (Mus musculus, UniProt Q9WU62)
T6 sequence (Q9WU62 1-880): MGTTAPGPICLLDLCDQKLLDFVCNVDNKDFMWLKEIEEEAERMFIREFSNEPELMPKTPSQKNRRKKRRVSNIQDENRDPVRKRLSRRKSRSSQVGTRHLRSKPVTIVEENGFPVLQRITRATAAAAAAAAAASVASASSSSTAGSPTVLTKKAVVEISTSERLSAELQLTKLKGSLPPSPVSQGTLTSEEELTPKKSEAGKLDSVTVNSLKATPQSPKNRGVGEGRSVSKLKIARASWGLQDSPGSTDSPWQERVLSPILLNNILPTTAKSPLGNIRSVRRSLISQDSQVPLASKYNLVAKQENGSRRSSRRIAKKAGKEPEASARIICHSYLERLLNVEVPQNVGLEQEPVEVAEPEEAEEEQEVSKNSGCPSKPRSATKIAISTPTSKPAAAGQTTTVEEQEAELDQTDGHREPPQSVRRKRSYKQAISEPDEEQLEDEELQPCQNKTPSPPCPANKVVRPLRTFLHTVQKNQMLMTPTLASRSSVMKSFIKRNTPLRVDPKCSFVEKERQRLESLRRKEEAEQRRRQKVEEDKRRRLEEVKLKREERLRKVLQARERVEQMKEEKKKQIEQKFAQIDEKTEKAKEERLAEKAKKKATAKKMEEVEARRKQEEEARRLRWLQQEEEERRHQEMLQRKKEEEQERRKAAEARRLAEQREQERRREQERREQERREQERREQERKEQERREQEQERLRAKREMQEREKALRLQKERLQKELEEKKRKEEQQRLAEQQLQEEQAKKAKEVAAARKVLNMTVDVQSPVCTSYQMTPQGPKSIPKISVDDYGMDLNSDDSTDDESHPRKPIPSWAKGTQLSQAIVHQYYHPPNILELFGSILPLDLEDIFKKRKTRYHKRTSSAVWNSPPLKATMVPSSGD

AEA-DA lipid probe targets in Neuro2a cells (Mus musculus, UniProt Q8BWM0), sequence (Q8BWM0 whole entry): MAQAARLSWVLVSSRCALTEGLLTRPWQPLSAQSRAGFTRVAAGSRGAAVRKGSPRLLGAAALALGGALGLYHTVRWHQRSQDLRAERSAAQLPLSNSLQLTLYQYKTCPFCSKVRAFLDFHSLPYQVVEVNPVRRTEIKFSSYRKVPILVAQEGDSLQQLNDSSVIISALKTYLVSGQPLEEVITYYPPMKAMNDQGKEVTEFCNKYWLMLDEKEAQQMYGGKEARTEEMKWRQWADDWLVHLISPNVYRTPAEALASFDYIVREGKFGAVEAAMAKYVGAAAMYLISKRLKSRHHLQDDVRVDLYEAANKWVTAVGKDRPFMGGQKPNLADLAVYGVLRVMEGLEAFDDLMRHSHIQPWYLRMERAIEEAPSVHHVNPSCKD

CCCCC/C=C\C/C=C\C/C=C\C/C=C\CCCC(=O)NCCO [AEA, anandamide, reference compound]
SILAC ratio, Ptges2 ([1]; competitor 200 μM): 2.1
SILAC ratio, Rab11a ([2]; competitor 200 μM): 1.6
SILAC ratio Stip1 ([3]; competitor 200 μM): 1.3
SILAC ratio P4ha1 ([4]; competitor 200 μM): 1.0
SILAC ratio, Derl1 ([5]; competitor 200 μM): 1.8
SILAC ratio, Tmem33 ([6]; competitor 200 μM): 1.8
SILAC ratio, TRABD (Q99JY4) ([7]; competitor 200 μM): 1.0
SILAC ratio, Trabd ([7]; competitor 200 μM): 1.0
SILAC ratio Tpp1 ([8]; competitor 200 μM): 1.5
SILAC ratio Incenp ([9]; competitor 200 μM): 1.4

O=C(/C=C/c1cccnc1)NCCCCC1CCN(C(=O)c2ccccc2)CC1 [FK-866, reference compound]
SILAC ratio, Ptges2 ([1]; competitor 25 μM): 1.4
SILAC ratio, Rab11a ([2]; competitor 25 μM): 1.2
SILAC ratio Stip1 ([3]; competitor 25 μM): 1.3
SILAC ratio P4ha1 ([4]; competitor 25 μM): 1.1
SILAC ratio, Derl1 ([5]; competitor 25 μM): 1.3
SILAC ratio, Tmem33 ([6]; competitor 25 μM): 1.2
SILAC ratio, TRABD (Q99JY4) ([7]; competitor 25 μM): 1.2
SILAC ratio, Trabd ([7]; competitor 25 μM): 1.2
SILAC ratio Tpp1 ([8]; competitor 25 μM): 1.0
SILAC ratio Incenp ([9]; competitor 25 μM): 0.8

CN1CCN(C(=O)c2c(-c3ccccc3)c3cc([N+](=O)[O-])ccc3n2C)CC1 [KML110, (1-Methyl-5-nitro-3-phenyl-1H-indol-2-yl)(4-methylpiperazin-1-yl)methanone]
SILAC ratio, Ptges2 ([1]; competitor 25 μM): 1.8
SILAC ratio, Rab11a ([2]; competitor 25 μM): 1.6
SILAC ratio Stip1 ([3]; competitor 25 μM): 1.6
SILAC ratio, Derl1 ([5]; competitor 25 μM): 1.2
SILAC ratio, Tmem33 ([6]; competitor 25 μM): 1.4
SILAC ratio, Trabd ([7]; competitor 25 μM): 1.5
SILAC ratio Tpp1 ([8]; competitor 25 μM): 1.5
SILAC ratio Incenp ([9]; competitor 25 μM): 1.2

CN1CCN(C(=O)c2[nH]c3ccc([N+](=O)[O-])cc3c2-c2ccccc2)CC1 [MJN228, (4-Methylpiperazin-1-yl)(5-nitro-3-phenyl-1H-indol-2-yl)methanone]
SILAC ratio, Ptges2 ([1]; competitor 10 μM): 1.3
SILAC ratio, Ptges2 ([1]; competitor 25 μM): 1.4
SILAC ratio, Ptges2 ([1]; competitor 100 μM): 2.3
SILAC ratio, Rab11a ([2]; competitor 10 μM): 1.2
SILAC ratio, Rab11a ([2]; competitor 25 μM): 1.6
SILAC ratio, Rab11a ([2]; competitor 50 μM): 1.9
SILAC ratio, Rab11a ([2]; competitor 100 μM): 2.4
SILAC ratio Stip1 ([3]; competitor 10 μM): 1.2
SILAC ratio Stip1 ([3]; competitor 25 μM): 1.3
SILAC ratio Stip1 ([3]; competitor 50 μM): 1.2
SILAC ratio Stip1 ([3]; competitor 100 μM): 1.9
SILAC ratio P4ha1 ([4]; competitor 10 μM): 1.3
SILAC ratio, Derl1 ([5]; competitor 10 μM): 1.2
SILAC ratio, Derl1 ([5]; competitor 25 μM): 1.4
SILAC ratio, Derl1 ([5]; competitor 50 μM): 1.7
SILAC ratio, Derl1 ([5]; competitor 100 μM): 1.8
SILAC ratio, Tmem33 ([6]; competitor 10 μM): 1.3
SILAC ratio, Tmem33 ([6]; competitor 25 μM): 1.5
SILAC ratio, Tmem33 ([6]; competitor 50 μM): 1.5
SILAC ratio, Tmem33 ([6]; competitor 100 μM): 2.0
SILAC ratio, TRABD (Q99JY4) ([7]; competitor 25 μM): 1.3
SILAC ratio, Trabd ([7]; competitor 10 μM): 1.1
SILAC ratio, Trabd ([7]; competitor 25 μM): 1.3
SILAC ratio, Trabd ([7]; competitor 50 μM): 1.4
SILAC ratio, Trabd ([7]; competitor 100 μM): 1.7
SILAC ratio Tpp1 ([8]; competitor 10 μM): 1.4
SILAC ratio Tpp1 ([8]; competitor 25 μM): 1.4
SILAC ratio Tpp1 ([8]; competitor 50 μM): 1.8
SILAC ratio Tpp1 ([8]; competitor 100 μM): 2.0
SILAC ratio Incenp ([9]; competitor 10 μM): 1.4
SILAC ratio Incenp ([9]; competitor 25 μM): 1.2
SILAC ratio Incenp ([9]; competitor 50 μM): 1.8
SILAC ratio Incenp ([9]; competitor 100 μM): 1.7

C=CCN(C)CCCCCCOc1ccc(C(=O)c2ccc(Br)cc2)c(F)c1 [Ro 48-8071, reference compound]
SILAC ratio, Ptges2 ([1]; competitor 25 μM): 1.3
SILAC ratio, Rab11a ([2]; competitor 25 μM): 1.3
SILAC ratio Stip1 ([3]; competitor 25 μM): 1.0
SILAC ratio P4ha1 ([4]; competitor 25 μM): 1.1
SILAC ratio, Derl1 ([5]; competitor 25 μM): 1.1
SILAC ratio, Tmem33 ([6]; competitor 25 μM): 1.1
SILAC ratio, TRABD (Q99JY4) ([7]; competitor 25 μM): 1.0
SILAC ratio, Trabd ([7]; competitor 25 μM): 1.0
SILAC ratio Tpp1 ([8]; competitor 25 μM): 0.8
